Test results: US20260042764A1, “COMPOSITIONS AND METHODS FOR INHIBITION OF KRAS” (TheRas, Inc., priority 2022, published 2026)

Tests used:
[1] = biological target: T1, Avi-KRAS G12D (1-169) GppNHp/RAF1 RBD-3xFLAG (52-151) (Homo sapiens, UniProt P01116, G12D); assay: Raf1-KRAS G12D-GppNHP disruption HTRF assay (Biological Example 1); format: binding
T1 construct: Avi-KRAS G12D (1-169)
Outline: (§1)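 Compound disruption of KRAS-GppNHp/RAF1 RBD binding read by HTRF after two sequential 1 h room-temperature incubations (protein mix, then detection reagents), shaken at 700 rpm. Buffer Tris pH 7.5 with MgCl2, BSA, Tween and 10% DMSO; results given as percent activity relative to DMSO (100%).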

[2] = biological target: T2, Avi-KRAS G12R (1-169) GppNHp/RAF1 RBD-3xFLAG (52-151) (Homo sapiens, UniProt P01116, G12R); assay: Raf1-KRAS G12R-GppNHP disruption HTRF assay (Biological Example 1); format: binding
T2 construct: Avi-KRAS G12R (1-169)
T2 sequence (P01116 1-169 isoform P01116-2 G12R): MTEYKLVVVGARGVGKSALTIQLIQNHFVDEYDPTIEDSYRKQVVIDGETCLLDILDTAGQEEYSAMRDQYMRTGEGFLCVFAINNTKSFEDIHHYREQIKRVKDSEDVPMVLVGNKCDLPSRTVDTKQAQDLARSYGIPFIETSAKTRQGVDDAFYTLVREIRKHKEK
Outline: as §1

[3] = biological target: T3, Avi-KRAS G12V (1-169) GppNHp/RAF1 RBD-3xFLAG (52-151) (Homo sapiens, UniProt P01116, G12V); assay: Raf1-KRAS G12V-GppNHP disruption HTRF assay (Biological Example 1); format: binding
T3 construct: Avi-KRAS G12V (1-169)
T3 sequence (P01116 1-169 isoform P01116-2 G12V): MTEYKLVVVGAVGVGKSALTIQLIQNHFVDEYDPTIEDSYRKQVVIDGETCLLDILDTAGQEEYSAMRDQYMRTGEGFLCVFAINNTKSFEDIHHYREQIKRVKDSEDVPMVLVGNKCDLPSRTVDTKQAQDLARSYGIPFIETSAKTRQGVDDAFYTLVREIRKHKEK
Outline: as §1

[4] = biological target: T4, Avi-KRAS WT (1-169) GppNHp/RAF1 RBD-3xFLAG (52-151) (Homo sapiens, UniProt P01116); assay: Raf1-KRAS WT-GppNHP disruption HTRF assay (Biological Example 1); format: binding
T4 construct: Avi-KRAS WT (1-169)
T4 sequence (P01116 1-169 isoform P01116-2): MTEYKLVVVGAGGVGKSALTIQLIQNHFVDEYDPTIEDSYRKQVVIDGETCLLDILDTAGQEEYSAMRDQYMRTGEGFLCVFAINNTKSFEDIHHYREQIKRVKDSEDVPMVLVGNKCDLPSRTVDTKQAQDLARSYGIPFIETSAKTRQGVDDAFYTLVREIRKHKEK
Outline: as §1

[5] = test system: GP2d cells (KRAS G12D); assay: Cell-based pERK HTRF assay in GP2d cell (Biological Example 2); settings: GP2d, GP2d (KRAS G12D) cells, pERK HTRF
Outline: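 60 min compound, 0.25% DMSO, 9-pt half-log curve from 1 μM or 100 nM; DMEM/10% FBS.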

[6] = test system: SW620 cells (KRAS G12V); assay: Cell-based pERK HTRF assay in SW620 cell (Biological Example 4); settings: Homo sapiens, SW-620, SW620 (KRAS G12V) cells, pERK HTRF
Outline: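 SW620 seeded in RPMI/10% FBS, next day dosed 4 h (top 1 μM, half-log, 9 pts, 0.25% DMSO). Lysed, pERK by d2/Eu cryptate HTRF, 4–24 h RT, 615 nm read.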

[7] = KRAS G12D, GppNHp-loaded, Table 11
[8] = KRAS G12R, GppNHp-loaded, Table 11
[9] = KRAS G12V, GppNHp-loaded, Table 11
[10] = KRAS WT, GppNHp-loaded, Table 11
[11] = KRAS G12D, GppNHp-loaded, class symbols
[12] = KRAS G12R, GppNHp-loaded, class symbols
[13] = KRAS G12V, GppNHp-loaded, class symbols
[14] = KRAS WT, GppNHp-loaded, class symbols

T1 sequence (P01116 1-169 isoform P01116-2 G12D): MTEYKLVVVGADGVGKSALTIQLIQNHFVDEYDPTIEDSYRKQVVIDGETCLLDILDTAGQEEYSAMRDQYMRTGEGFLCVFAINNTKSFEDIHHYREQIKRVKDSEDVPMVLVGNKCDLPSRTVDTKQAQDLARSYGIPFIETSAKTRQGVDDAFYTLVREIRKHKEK

| Structure (SMILES) | IC50 [1, 7] | IC50 [2, 8] | IC50 [3, 9] | IC50 [4, 10] | IC50 [5] | IC50 [6] | IC50 [1, 11] | IC50 [2, 12] | IC50 [3, 13] | IC50 [4, 14] | IC50 ([5]; class symbols) | IC50 ([6]; class symbols) | IC50 ([1]; KRAS G12D-GppNHp/RAF1 RBD HTRF) | IC50 ([2]; KRAS G12R-GppNHp/RAF1 RBD HTRF) | IC50 ([3]; KRAS G12V-GppNHp/RAF1 RBD HTRF) | IC50 ([4]; KRAS WT-GppNHp/RAF1 RBD HTRF) |
| --- | --- | --- | --- | --- | --- | --- | --- | --- | --- | --- | --- | --- | --- | --- | --- | --- |
| CC(=O)N1C[C@H]2CCN(c3nc(OC[C@@]45CCCN4C[C@H](F)C5)nc4c(F)c(-c5ccc(F)c6sc(N)c(C#N)c56)c(C(F)(F)F)cc34)[C@H]2C1 [Compound 210] | 1000 to 10000 nM | 1000 to 10000 nM | 100 to 1000 nM | 100 to 1000 nM | < 100 nM | 100 to 1000 nM |  |  |  |  |  |  |  |  |  |  |
| COC(=O)N1CC[C@H]2[C@@H]1CN2c1nc(OC[C@@]23CCCN2C[C@H](F)C3)nc2c(F)c(-c3ccc(F)c4sc(N)c(C#N)c34)c(C(F)(F)F)cc12 (atropisomer, axis not shown) [Compound 716] |  |  |  |  |  |  | 1000 to 10000 nM | > 10000 nM | > 10000 nM | 1000 to 10000 nM | < 100 nM | 100 to 1000 nM |  |  |  |  |
| N#CCC[C@H]1CCN(c2nc(OC[C@@]34CCCN3C[C@H](F)C4)nc3c(F)c(-c4ccc(F)c5sc(N)c(C#N)c45)c(C(F)(F)F)cc23)C1 [Compound 214] | 1000 to 10000 nM | 1000 to 10000 nM | 1000 to 10000 nM | 1000 to 10000 nM | 100 to 1000 nM | 100 to 1000 nM |  |  |  |  |  |  |  |  |  |  |
| C[C@H]1Cn2nnc(C#N)c2CN1c1nc(OC[C@@]23CCCN2C[C@H](F)C3)nc2c(F)c(-c3ccc(F)c4sc(N)c(C#N)c34)c(C(F)(F)F)cc12 (atropisomer, axis not shown) [Compound 625] |  |  |  |  |  |  | 100 to 1000 nM | 1000 to 10000 nM | 1000 to 10000 nM | 1000 to 10000 nM | < 100 nM | < 100 nM |  |  |  |  |
| CCC(=O)N1C[C@@H](N(CC)c2nc(OC[C@@]34CCCN3C[C@H](F)C4)nc3c(F)c(-c4ccc(F)c5sc(N)c(C#N)c45)c(C(F)(F)F)cc23)C[C@H]1COC (atropisomer, axis not shown) [Compound 649] |  |  |  |  |  |  | 100 to 1000 nM | 100 to 1000 nM | 100 to 1000 nM | 100 to 1000 nM | < 100 nM | < 100 nM |  |  |  |  |
| CCN(c1nc(OCC23CCCN2CC(F)C3)nc2c(F)c(-c3ccc(F)c4sc(N)c(C#N)c34)c(C(F)(F)F)cc12)C1CCN(C(=O)c2cccnc2)C1 (stereo not drawn) [Compound 715] |  |  |  |  |  |  | < 100 nM | < 100 nM | < 100 nM | < 100 nM | < 100 nM | < 100 nM |  |  |  |  |
| C/C=C/C(=O)N1CC[C@@H](N(C)c2nc(OC[C@@]34CCCN3C[C@H](F)C4)nc3c(F)c(-c4ccc(F)c5sc(N)c(C#N)c45)c(C(F)(F)F)cc23)[C@H]1C [Compound 670] |  |  |  |  |  |  | 100 to 1000 nM | 100 to 1000 nM | 100 to 1000 nM | 100 to 1000 nM | < 100 nM | < 100 nM |  |  |  |  |
| N#Cc1c(N)sc2c(F)ccc(-c3c(C(F)(F)F)cc4c(N5C6COCC5CC(O)C6)nc(OC[C@@]56CCCN5C[C@H](F)C6)nc4c3F)c12 (stereo partly drawn) [Compound 374] |  |  |  |  | < 100 nM | < 100 nM |  |  |  |  |  |  | 100 to 1000 nM | 1000 to 10000 nM | 1000 to 10000 nM | 100 to 1000 nM |
| CC(=O)N1C2CCC1CN(c1nc(OC[C@@]34CCCN3C[C@H](F)C4)nc3c(F)c(-c4ccc(F)c5sc(N)c(C#N)c45)c(C(F)(F)F)cc13)C2 [Compound 438] |  |  |  |  | < 100 nM | < 100 nM |  |  |  |  |  |  | 100 to 1000 nM | 100 to 1000 nM | 1000 to 10000 nM | 100 to 1000 nM |
| CN(C)C(=O)[C@@H]1CN(c2nc(OC[C@@]34CCCN3C[C@H](F)C4)nc3c(F)c(-c4ccc(F)c5sc(N)c(C#N)c45)c(C(F)(F)F)cc23)CCO1 [Compound 472] |  |  |  |  | < 100 nM | < 100 nM |  |  |  |  |  |  | 100 to 1000 nM | 1000 to 10000 nM | 1000 to 10000 nM | 1000 to 10000 nM |
| CC(C)C(=O)N1C[C@@H](N(C)c2nc(OC[C@@]34CCCN3C[C@H](F)C4)nc3c(F)c(-c4ccc(F)c5sc(N)c(C#N)c45)c(C(F)(F)F)cc23)C[C@@H]1C [Compound 436] |  |  |  |  | < 100 nM | < 100 nM |  |  |  |  |  |  | 1000 to 10000 nM | 100 to 1000 nM | 1000 to 10000 nM | 1000 to 10000 nM |
| C/C=C\C(=O)N1CC[C@@H](N(C)c2nc(OC[C@@]34CCCN3C[C@H](F)C4)nc3c(F)c(-c4ccc(F)c5sc(N)c(C#N)c45)c(C(F)(F)F)cc23)[C@H]1C [Compound 672] |  |  |  |  |  |  | 100 to 1000 nM | 100 to 1000 nM | 100 to 1000 nM | 100 to 1000 nM | < 100 nM | < 100 nM |  |  |  |  |
